Data reported in patent US11266645B2, “Methods for treating lymphoma” (Alexion Pharmaceuticals, Inc., priority 2018, dated 2022).
“And” between values parts separate entries of the source, which are not always exact repeats. Equal entries are not always repeated. Where two headings read alike, the source gives them in different places.

Experiments:
[1] = Food and proton pump inhibitor crossover PK study in healthy subjects; format: in vivo, human; settings: 30 mg oral; for Cmax / AUC(0-inf) / half-life / Tmax: human; for Cmax / AUC(0-inf): po, 30 mg; for AUC(0-inf): read-out: AUC0−inf Mean; for half-life: read-out: T1/2 Mean (converted); for Tmax: read-out: Tmax Median
Experimental: In an open-label, randomized, 3-period crossover study, healthy subjects received 30 mg cerdulatinib orally. The 3-period treatments were fasted, high-fat diet, and proton pump inhibitor (PPI) esomaprazole, with 14-day washout between treatments. Blood samples were collected up to 72 hours after cerdulatinib treatment. PK endpoints were area under the curve (AUC), maximum concentration (Cmax), Time to Cmax (Tmax), and half-live (T1/2).

Primary CLL cells = Primary CLL cells with IL-4/CD40L, immunoblotting and annexin V/PI viability; format: cell-based, human
Experimental: Combination studies were performed with 10 or 100 nM venetoclax or 300 and 1000 nM S63846. Cell viability was assessed by annexin V/PI using flow cytometry and changes in protein expression by immunoblotting.

[2] = test system: patients with relapsed/refractory (r/r) B- and T-cell lymphoma; test: Phase 2 study of cerdulatinib 30 mg BID in relapsed/refractory B- and T-cell lymphoma (Example 2); format: in vivo, human
Experimental: This study intended to confirm the safety and efficacy of cerdulatinib dosed 30 mg orally BID in patients with relapsed/refractory (r/r) B- and T-cell lymphoma. Dose reductions were permitted to a minimum of 15 mg BID. Response was assessed by Lugano Classification criteria.
Ninety nine patients enrolled (FL: 36, CLL/SLL: 28, PTCL: 18, marginal zone lymphoma: 8, aggressive: 5, Waldenstrom's macroglobulinemia: 4) (Table 4). Median age is 68 (42-93) and median # of prior therapies is 3 (1-13) (Table 5). 30 patients had prior BTK, PI3K or BCL-2 inhibitor therapy. The most common AEs of any grade are diarrhea (42%), fatigue (36%), and nausea (32%). Grade 3+ AEs occurring in ≥5% patients are neutropenia (18%), lipase increase (15%), pneumonia (12%), diarrhea (10%), and fatigue (7%). 5 patients have had Grade 5 infections considered related to study drug (3 of 5 in the CLL cohort). The target PK range has been achieved with an average SSCmin of ˜0.8 μM.

Structure (SMILES): CCS(=O)(=O)N1CCN(c2ccc(Nc3ncc(C(N)=O)c(NC4CC4)n3)cc2)CC1 [cerdulatinib, 4-(cyclopropylamino)-2-((4-(4-(ethylsulfonyl)piperazin-1-yl)phenyl)amino)pyrimidine-5-carboxamide]
- AUC0−inf Ratio Fed/Fasted [1]: 1.16
- AUC0−inf Ratio PPI/Fasted [1]: 1.06
- Cmax Ratio Fed/Fasted [1]: 1.11
- Cmax Ratio PPI/Fasted [1]: 1.02
- T1/2 Mean ([1]; Fasted): 14.5 h
- Cmax ([1]; blood, Fed (high-fat diet)): 187 ng/mL
- AUC(0-inf) ([1]; blood, Fed (high-fat diet)): 4060 ng·h/mL
- half-life ([1]; blood, Fed (high-fat diet)): 13.6 h
- Tmax ([1]; blood, Fed (high-fat diet)): 6 h
- Cmax ([1]; in vivo, Fasted): 168 ng/mL
- AUC(0-inf) ([1]; in vivo, Fasted): 3460 ng·h/mL
- Cmax ([1]; in vivo, PPI (esomaprazole)): 170 ng/mL
- AUC(0-inf) ([1]; in vivo, PPI (esomaprazole)): 3680 ng·h/mL
- half-life ([1]; in vivo, PPI (esomaprazole)): 14.5 h
- Tmax ([1]; in vivo, PPI (esomaprazole)): 4 h
- IL-4/CD40L induced Mcl-1 and Bcl-XL expression (Primary CLL cells; 1 μM): significantly reduced
- inhibition of Mcl-1 and Bcl-XL compared to the other kinase inhibitors (Primary CLL cells; 1 μM): more robust inhibition
- synergy with venetoclax to induce apoptosis (Primary CLL cells; CLL cells): synergized
- Bim induction compared to idelalisib and ibrutinib (Primary CLL cells; equivalent drug concentrations): induced to greater levels
- duration of durable PR ([2]; CLL patient relapsed on BTK inhibitor): ≥ 5 months
- CR (%) ([2]; CLL/SLL): (4) %
- CR, number of patients ([2]; CLL/SLL): 1
- PD (%) ([2]; CLL/SLL): (4) %
- PD, number of patients ([2]; CLL/SLL): 1
- PR (%) ([2]; CLL/SLL): (57) %
- PR, number of patients ([2]; CLL/SLL): 16
- ORR ([2]; CLL/SLL, N 28): 61%
- CR, number of patients ([2]; DLBCL, tFL, and MCL): 0
- PD (%) ([2]; DLBCL, tFL, and MCL): 60%
- PD, number of patients ([2]; DLBCL, tFL, and MCL): 3
- PR (%) ([2]; DLBCL, tFL, and MCL): 20%
- PR, number of patients ([2]; DLBCL, tFL, and MCL): 1
- ORR ([2]; DLBCL, tFL, and MCL, N 5): 20%
- CR (%) ([2]; FL): (10) %
- CR, number of patients ([2]; FL): 3
- PD (%) ([2]; FL): (10) %
- PD, number of patients ([2]; FL): 3
- PR (%) ([2]; FL): (39) %
- PR, number of patients ([2]; FL): 12
- duration of durable PR ([2]; FL patient relapsed on BTK inhibitor): 12 months
- ORR ([2]; FL, N 31): 49%
- CR, number of patients ([2]; Other Indolent Lymphoma): 0
- PD (%) ([2]; Other Indolent Lymphoma): 33%
- PD, number of patients ([2]; Other Indolent Lymphoma): 4
- PR (%) ([2]; Other Indolent Lymphoma): 42%
- PR, number of patients ([2]; Other Indolent Lymphoma): 5
- ORR ([2]; Other Indolent Lymphoma, N 12): 42%
- CR (%) ([2]; PTCL): 33%
- PD (%) ([2]; PTCL): 33%
- PD, number of patients ([2]; PTCL): 5
- PR (%) ([2]; PTCL): 13%
- PR, number of patients ([2]; PTCL): 2
- study drug-related Serious Adverse Events (SAEs), number ([2]; PTCL (n=16), Grade 3 to 4): 4
- duration of durable PR ([2]; PTCL patient relapsed on tenalisib): ≥ 3 months
- AEs of any grade: diarrhea ([2]; PTCL patients): 33%
- AEs of any grade: fatigue ([2]; PTCL patients): 22%
- AEs of any grade: lipase increase ([2]; PTCL patients): 17%
- AEs of any grade: nausea ([2]; PTCL patients): 17%
- Grade 3+ AEs: diarrhea, number of patients ([2]; PTCL patients): 3
- Grade 3+ AEs: lipase increase, number of patients ([2]; PTCL patients): 2
- Grade 3+ AEs: neutropenia, number of patients ([2]; PTCL patients): 4
- Grade 3+ AEs: pneumonia, number of patients ([2]; PTCL patients): 2
- deaths or discontinuations due to Treatment Emergent Adverse Events ([2]; PTCL patients (n=16)): no deaths or discontinuations
- CR, number of patients ([2]; PTCL, 15 evaluable): 5
- ORR ([2]; PTCL, N 15, 30 mg BID): 47%
- duration of durable PR ([2]; SLL patient relapsed on venetoclax): ≥ 18 months
- duration of durable PR ([2]; WM patient relapsed on BTK inhibitor): ≥ 7 months
- AEs of any grade: diarrhea ([2]; all 99 patients): 42%
- AEs of any grade: fatigue ([2]; all 99 patients): 36%
- AEs of any grade: nausea ([2]; all 99 patients): 32%
- Grade 3+ AEs: diarrhea ([2]; all 99 patients): 10%
- Grade 3+ AEs: fatigue ([2]; all 99 patients): 7%
- Grade 3+ AEs: lipase increase ([2]; all 99 patients): 15%
- Grade 3+ AEs: neutropenia ([2]; all 99 patients): 18%
- Grade 3+ AEs: pneumonia ([2]; all 99 patients): 12%
- patients with Grade 5 infections considered related to study drug ([2]; all 99 patients, 3 of 5 in the CLL cohort): 5 patients
- time on treatment of PTCL patients with CR still on drug ([2]; first (two) responding PTCL patients): 11 months and 12 months and 8 months
- response durations ([2]; first two PTCL patients achieving a response (both CRs)): 10 months and 6 months
- Toxicities ≥ Grade 3: Asthenia/Fatigue ([2]; r/r PTCL, N = 16): 6.3%
- Toxicities ≥ Grade 3: Diarrhea/Colitis ([2]; r/r PTCL, N = 16): 6.3%
- Toxicities ≥ Grade 3: Infection ([2]; r/r PTCL, N = 16): 18.8%
- Toxicities ≥ Grade 3: Neutropenia ([2]; r/r PTCL, N = 16): 6.3%
